{
  "source": "patent US11510894B2",
  "about": "“Fast acting inhibitor of gastric acid secretion” (priority 2006, dated 2022)",
  "key": {"[1]": {"molecular_target": "T1, H+/K+-ATPase (Rattus norvegicus, UniProt P09626)", "T1 construct": "Individual glands were isolated using a hand-dissection technique; from tissue; host or cells: hand-dissected gastric glands of Sprague-Dawley rats (corpus/antrum)", "T1 sequence (P09626 whole entry)": "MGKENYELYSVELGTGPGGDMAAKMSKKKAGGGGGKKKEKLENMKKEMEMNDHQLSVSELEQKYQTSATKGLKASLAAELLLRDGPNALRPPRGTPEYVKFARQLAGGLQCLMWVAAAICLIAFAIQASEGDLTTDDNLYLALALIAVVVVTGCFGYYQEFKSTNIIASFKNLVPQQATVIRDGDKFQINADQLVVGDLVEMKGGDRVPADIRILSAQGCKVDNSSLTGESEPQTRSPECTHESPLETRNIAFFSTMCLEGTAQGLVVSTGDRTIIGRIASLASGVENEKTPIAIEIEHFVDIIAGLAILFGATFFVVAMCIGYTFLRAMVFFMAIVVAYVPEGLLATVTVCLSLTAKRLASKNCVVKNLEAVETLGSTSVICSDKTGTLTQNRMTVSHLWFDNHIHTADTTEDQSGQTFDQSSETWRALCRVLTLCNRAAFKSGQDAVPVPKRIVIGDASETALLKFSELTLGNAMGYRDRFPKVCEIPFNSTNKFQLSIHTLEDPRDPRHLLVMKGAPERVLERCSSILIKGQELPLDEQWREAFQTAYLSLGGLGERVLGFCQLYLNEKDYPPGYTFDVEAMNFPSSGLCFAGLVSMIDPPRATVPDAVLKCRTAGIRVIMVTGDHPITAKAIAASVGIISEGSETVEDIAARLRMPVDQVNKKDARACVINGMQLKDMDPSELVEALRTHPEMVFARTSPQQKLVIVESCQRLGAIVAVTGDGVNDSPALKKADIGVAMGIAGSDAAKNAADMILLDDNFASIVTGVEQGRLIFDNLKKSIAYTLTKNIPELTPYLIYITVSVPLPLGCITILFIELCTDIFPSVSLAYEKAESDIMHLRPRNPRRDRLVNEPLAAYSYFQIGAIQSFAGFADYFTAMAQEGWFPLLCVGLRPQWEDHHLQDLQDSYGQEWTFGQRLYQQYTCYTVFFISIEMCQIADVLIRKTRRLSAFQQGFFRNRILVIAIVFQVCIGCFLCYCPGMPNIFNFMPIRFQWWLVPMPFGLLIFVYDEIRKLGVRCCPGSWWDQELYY", "T1 sequence (P18598 whole entry partner)": "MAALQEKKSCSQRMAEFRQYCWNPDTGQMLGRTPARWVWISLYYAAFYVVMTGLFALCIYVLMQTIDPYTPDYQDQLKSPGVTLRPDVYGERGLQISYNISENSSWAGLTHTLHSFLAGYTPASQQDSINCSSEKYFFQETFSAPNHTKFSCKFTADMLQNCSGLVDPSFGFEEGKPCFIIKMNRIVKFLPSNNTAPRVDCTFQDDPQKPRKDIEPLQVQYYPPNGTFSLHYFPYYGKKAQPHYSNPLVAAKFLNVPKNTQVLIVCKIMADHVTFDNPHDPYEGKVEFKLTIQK", "assay": "Intracellular pH recovery in rat corpus glands (comparison with fundus)", "type": "cell-based", "procedure": "Molecular Probes, OR USA)) for 15 minutes. […] Measurements were performed in the epifluorescence mode with 60×/0.80 and 40×/0.90 objectives. […] Data points were acquired every 15 s. […] Acid extrusion was monitored in the absence of bicarbonate. […] All data are summarized as mean±S.E. Significance was determined using the one-way ANOVA test with p<0.05 considered to be statistically significant. All chemicals used were obtained from Sigma and Molecular Probes."}, "[2]": {"test_system": "H+, K+-ATPase", "assay": "Intracellular pH recovery in isolated rat fundic (F1) glands", "type": "cell-based", "conditions": "for alkalinization rate of F1 glands: 100 μM secretagogue alone", "procedure": "Male Sprague Dawley rats weighing 200-300 g were housed in climate and humidity controlled, light cycled rooms and fed standard chow with free access to water. Prior to experiments, animals were fasted while allowing free access to water for 18-24 hours to reduce basal acid secretion. Following isoflurane anesthesia the animals were sacrificed, an abdominal incision was made exposing the stomach. After isolating the esophagus and duodenal junctures a total gastrectomy was performed with 1-2 cm of esophagus remaining attached to the gastrectomy. We included the esophageal juncture to have a common landmark for all fundic isolations. While holding the esophagus with forceps approximately 3 mm of fundus was removed with 5 mm of the intact esophagus. The removed fundic tissue was placed in ice cold HEPES-buffered Ringer-solution (pH adjusted to 7.4 at 4° C.) and transferred to the stage of a dissection microscope. The fundic glands were visualized under the microscope at 50× magnification. Glands adjacent to the esophageal junction were hand dissected. Following isolation, individual glands were adhered to cover slips that had been pretreated with the biological adhesive Cell-Tak (Cell-Tak™ cell adhesive, BD Biosciences; Bedford, Mass.) […] Molecular Probes, OR USA)) for 15 minutes. […] Measurements were performed in the epifluorescence mode with 60×/0.80 and 40×/0.90 objectives. […] Data points were acquired every 15 s. […] Acid extrusion was monitored in the absence of bicarbonate. […] All data are summarized as mean±S.E. Significance was determined using the one-way ANOVA test with p<0.05 considered to be statistically significant. All chemicals used were obtained from Sigma and Molecular Probes."}, "[3]": {"molecular_target": "T1, H+/K+-ATPase", "assay": "Intracellular pH recovery (proton extrusion) in isolated rat gastric glands, NH4Cl prepulse, BCECF", "type": "cell-based", "procedure": "Animals. Sprague-Dawley rats 150-250 g (Charles River Laboratory)) were housed in climate- and humidity-controlled, light-cycled rooms, fed standard chow with free access to water, and handled according to the humane practices of animal care established by the Yale Animal Care. Prior to experiments, animals were fasted for 18-24 hours with free access to water.\n(§1) Isolation of rat and human gastric Glands. Following removal of the stomach, the stomach was opened longitudinally and the corpus and antrum isolated and sliced into 0.5 cm square sections, and washed with cold Ringer solution to remove residual food particles. The tissues were transferred to the stage of a dissecting microscope. Individual glands were isolated using a hand-dissection technique as described previously^36. Following isolation, individual isolated glands were allowed to adhere to cover slips that had been pre-coated with Cell-Tak (Collaborative Research, Bedford, Mass.) and were transferred to the stage of an inverted microscope.\n(§2) Digital imaging for intracellular pH. Isolated gastric glands were incubated in a HEPES-buffered Ringer's solution containing either 10 μmol of the pH-sensitive dye BCECF-AM (2′,7′)-bis-(2-carboxyethyl)-5-(and-6)-carboxy-fluorescin, aceto-methyl ester (Molecular Probes, Eugene, Oreg.) for 10 minutes as described previously^37-39. […] A minimum of 8 cells or regions was selected per gland.\n(§3) Proton extrusion by individual parietal cells was monitored by observing recovery of pHi after acid loading the cells with Na^+ free HEPES solution containing 20 mM NH4Cl.\n(§4) The recovery rates are expressed as the ΔpH/min, and were calculated over the pH range of 6.5-6.8."}, "[4]": {"test_system": "histamine induced gastric acid secretion", "assay": "Whole stomach pH measurements, ex vivo rat whole stomach preparation", "procedure": "Whole stomach pH measurements. Before the experiments animals were fasted for 24 h to reduce basal acid secretion to a consistent minimum. Animals were killed with an overdose of isoflurane and an abdominal incision was made. The stomach was ligated at the duodenal and esophageal junction and excised. Then 1 ml of non buffered, isotonic saline (140 mM) was infused into the lumen of the stomach. […] The stomachs were then placed in either oxygenated HEPES-buffered Ringer solution or in the same solution containing 100 μM histamine alone or additionally 300 μM ZnCl2 (pH 7.4) and maintained at 37° C. After 1 hour the stomach contents were aspirated and the pH was recorded."}, "[5]": {"molecular_target": "T1, H+/K+-ATPase", "assay": "Oral zinc supplementation in rats, histamine induced proton extrusion of isolated glands", "type": "in vivo", "procedure": "Oral Zinc supplementation in rats. These studies were designed to modulate acid secretion by increasing dietary zinc. In these studies we used an oral ZnCl2 solution (zinc chloride in tap water). The animals had free access to food and the zinc containing water for the duration of the study. […] Animals had free access to water prior to the experiment and were fed with standard chow until 24 hours before the experiment, at which point they had free access to ZnCl2 containing water only. After the 5 days exposure period and the 24 hour fast, the animals were sacrificed and a total gastrectomy was performed on the animals. Individual gastric glands were isolated with the hand dissection technique described above."}, "[6]": {"molecular_target": "H+/K+-ATPase (Homo sapiens, UniProt P20648)", "sequence (P20648 whole entry)": "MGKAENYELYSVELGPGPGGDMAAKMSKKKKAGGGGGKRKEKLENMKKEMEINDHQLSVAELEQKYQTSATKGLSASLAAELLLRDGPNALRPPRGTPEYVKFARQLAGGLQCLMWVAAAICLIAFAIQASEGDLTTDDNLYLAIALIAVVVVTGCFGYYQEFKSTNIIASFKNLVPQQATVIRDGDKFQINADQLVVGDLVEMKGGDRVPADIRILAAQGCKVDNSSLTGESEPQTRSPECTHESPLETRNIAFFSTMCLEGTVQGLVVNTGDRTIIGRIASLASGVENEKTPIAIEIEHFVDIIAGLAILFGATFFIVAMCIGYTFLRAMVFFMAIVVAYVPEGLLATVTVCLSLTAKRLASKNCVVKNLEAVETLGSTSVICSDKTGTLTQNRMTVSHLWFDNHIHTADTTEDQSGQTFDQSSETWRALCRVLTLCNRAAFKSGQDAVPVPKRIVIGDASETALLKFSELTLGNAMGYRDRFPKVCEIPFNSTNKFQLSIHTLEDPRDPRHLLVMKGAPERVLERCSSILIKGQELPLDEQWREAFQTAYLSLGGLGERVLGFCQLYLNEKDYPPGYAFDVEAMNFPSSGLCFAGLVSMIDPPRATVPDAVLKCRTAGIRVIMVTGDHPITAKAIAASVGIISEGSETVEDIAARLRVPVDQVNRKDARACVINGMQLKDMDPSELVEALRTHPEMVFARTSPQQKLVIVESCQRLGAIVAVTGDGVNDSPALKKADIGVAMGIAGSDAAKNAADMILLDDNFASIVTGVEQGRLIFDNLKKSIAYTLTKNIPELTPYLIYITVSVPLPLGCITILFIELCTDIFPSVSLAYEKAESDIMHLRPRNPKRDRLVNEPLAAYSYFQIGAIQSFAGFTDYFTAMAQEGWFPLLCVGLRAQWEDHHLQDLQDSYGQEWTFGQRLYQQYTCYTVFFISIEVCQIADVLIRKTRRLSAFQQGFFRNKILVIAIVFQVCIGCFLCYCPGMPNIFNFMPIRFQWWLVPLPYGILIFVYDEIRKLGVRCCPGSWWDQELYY", "sequence (P51164 whole entry partner)": "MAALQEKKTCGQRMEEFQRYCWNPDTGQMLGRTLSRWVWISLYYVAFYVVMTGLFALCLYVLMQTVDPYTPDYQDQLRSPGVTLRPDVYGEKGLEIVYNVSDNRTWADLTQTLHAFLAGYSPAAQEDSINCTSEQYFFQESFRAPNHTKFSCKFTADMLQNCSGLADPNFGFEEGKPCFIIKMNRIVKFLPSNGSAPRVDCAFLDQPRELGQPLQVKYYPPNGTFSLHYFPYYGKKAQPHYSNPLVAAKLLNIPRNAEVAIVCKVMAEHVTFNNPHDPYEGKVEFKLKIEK", "assay": "Intracellular pH recovery (proton extrusion) in isolated human gastric glands", "type": "cell-based", "conditions": "histamine stimulation", "description": "as §1, §2, §3, §4"}},
  "note": "Several values for one entry are separate records, joined by “and”; a condition that tells them apart may be missing. Equal entries are not always repeated. Entries after “also recorded” stand apart in the source; their conditions may differ.",
  "data": [
    {"smiles": "Cc1cccc(C)c1CNc1cc(C(=O)NCCO)cn2c(C)c(C)nc12", "note": "[AZD0865]", "values": [
      {"measurement": "inhibition of acid secretion in corpus glands, in words", "setting": "[1]; omeprazole 200 μM, AZD0865 10 μM", "value": "effectively inhibits acid secretion; also recorded: strong inhibition"},
      {"measurement": "inhibition of acid secretion in F1 (fundic) glands, in words", "setting": "[2]; omeprazole 200 μM with histamine 100 μM, AZD0865 10 μM", "value": "does not completely inhibit proton extrusion"}
    ]},
    {"smiles": "[Cl-].[Cl-].[Zn+2]", "note": "[ZnCl2, zinc chloride]", "values": [
      {"measurement": "inhibition of proton extrusion compared to the histamine induced rate", "setting": "[3]; 300 μM ZnCl2, 100 μM histamine", "value": 98, "unit": "%"},
      {"measurement": "effect on histamine induced proton efflux from gastric glands", "setting": "[3]; 300 umol ZnCl2, histamine 100 μM", "value": "blocked"},
      {"measurement": "onset of inhibition of histamine induced acid secretion", "setting": "[3]; ZnCl2 300 μM added to superfusion bath, histamine 100 μM", "value": "abolished after a few seconds"},
      {"measurement": "mean luminal pH", "setting": "[4]; 100 μM histamine and 300 μM ZnCl2, 1 hour", "value": "4.54±0.065"},
      {"measurement": "whole stomach pH in words", "setting": "[4]; 100 μmol histamine and 300 μmol ZnCl2", "value": "higher pH than those in HEPES-buffered Ringer solution and histamine"},
      {"measurement": "histamine induced proton extrusion rate after oral ZnCl2", "setting": "[5]; 0.5 mg/kg/d ZnCl2 in drinking water for 5 days", "value": "0.034±0.0036"},
      {"measurement": "histamine induced proton extrusion rate after oral ZnCl2", "setting": "[5]; 150 mg/kg/d ZnCl2 in drinking water for 5 days", "value": "0.022±0.0045"},
      {"measurement": "effect on histamine stimulated proton efflux in human gastric glands", "setting": "[6]", "value": "abolished"}
    ]},
    {"smiles": "CC(=O)OCC[N+](C)(C)C", "note": "[acetylcholine]", "values": [
      {"measurement": "alkalinization rate of F1 glands", "setting": "[2]", "value": "0.075±0.0015 ΔpHi/min"}
    ]},
    {"smiles": "NCCc1c[nH]cn1", "note": "[histamine]", "values": [
      {"measurement": "histamine stimulated proton extrusion rate in corpus gland", "setting": "[1]; 100 μM histamine", "value": "0.056±0.008 ΔpHi/min"},
      {"measurement": "mean luminal pH", "setting": "[4]; 100 μM histamine, 1 hour", "value": "3.15±0.27"},
      {"measurement": "effect of secretagogue on F1 zone glands in comparison to controls, in words", "setting": "[2]; 100 μM", "value": "no effect"},
      {"measurement": "alkalinization rate of F1 glands", "setting": "[2]", "value": "0.04±0.0079 ΔpHi/min and 0.042±0.007 ΔpHi/min"},
      {"measurement": "recovery rate (proton extrusion) of histamine stimulated parietal cells", "setting": "[5]; control group, histamine alone, no zinc", "value": "0.051±0.004"}
    ]},
    {"smiles": "COc1ccc2[nH]c([S+]([O-])Cc3ncc(C)c(OC)c3C)nc2c1", "note": "(centres unmarked) [omeprazole]", "values": [
      {"measurement": "alkalinization rate of fundic glands", "setting": "[2]; 200 μM omeprazole and 100 μM histamine", "value": "0.045±0.002 ΔpHi/min"}
    ]}
  ]
}
